Assay results: ChEMBL document CHEMBL4052745 (Bioorg Med Chem, 2017)
≈ marks a conversion by molar mass, not a printed value.

Legend:
[1] = Cytotoxicity against mouse RAW264.7 cells after 4 hrs by MTT assay; type: cell-based; details: read-out: TD50
Bacillus anthracis = experiment: Bactericidal activity against Bacillus anthracis; type: functional

In the case of CC(C)NC(=O)N[C@H](CNC(=O)N[C@@H](CCCCN)CNC(=O)N[C@H](CNC(=O)N[C@H](CNC(=O)N[C@@H](CCCCN)CNC(=O)N[C@H](CNC(=O)N[C@@H](CCCCN)CNC(=O)N[C@H](CNC(N)=S)C(C)C)Cc1c[nH]c2ccccc12)C(C)C)Cc1c[nH]c2ccccc12)C(C)C, the CC50 at 4 h [1] is reported as 21 µg/mL (≈ 14.9 µM).
With CC(C)NC(=O)N[C@H](CNC(=O)N[C@@H](CCCCN)CNC(=O)N[C@H](CNC(=O)N[C@H](CNC(=O)N[C@@H](CCCCN)CNC(=O)N[C@H](CNC(=O)N[C@@H](CCCCN)CNC(=N)N[C@H](CCC(N)=O)C(C)C)Cc1c[nH]c2ccccc12)C(C)C)Cc1c[nH]c2ccccc12)C(C)C the CC50 at 4 h [1] was 15 µg/mL (≈ 10.8 µM).
CC(C)NC(=O)N[C@H](CNC(=O)N[C@@H](CCCCN)CNC(=O)N[C@H](CNC(=O)N[C@H](CCNC(=O)N[C@@H](CCCCN)CNC(=O)N[C@H](CNC(=O)N[C@@H](CCCCN)CNC(=O)N[C@H](CCC(N)=O)C(C)C)Cc1c[nH]c2ccccc12)C(C)C)Cc1c[nH]c2ccccc12)C(C)C gave an EC50 (Bacillus anthracis) of 7 to 10 µg/mL (≈ 4.99 to 7.13 µM).
With CC(C)NC(=O)N[C@H](CNC(=S)N[C@@H](CCCCN)CNC(=O)N[C@H](CNC(=O)N[C@H](CNC(=O)N[C@@H](CCCCN)CNC(=O)N[C@H](CNC(=O)N[C@@H](CCCCN)CNC(=O)N[C@H](CNC(N)=O)C(C)C)Cc1c[nH]c2ccccc12)C(C)C)Cc1c[nH]c2ccccc12)C(C)C the CC50 at 4 h [1] was 26 µg/mL (≈ 18.5 µM).
CC(C)NC(=O)N[C@H](CNC(=O)N[C@@H](CCCCN)CNC(=O)N[C@H](CNC(=O)N[C@H](CNC(=O)N[C@@H](CCCCN)CNC(=O)N[C@H](CNC(=O)N[C@@H](CCCCN)CNC(=S)N[C@H](CCC(N)=O)C(C)C)Cc1c[nH]c2ccccc12)C(C)C)Cc1c[nH]c2ccccc12)C(C)C gave a CC50 at 4 h [1] of 20.5 µg/mL (≈ 14.6 µM).
Compound CC(C)NC(=O)N[C@H](CNC(=O)N[C@@H](CCCCN)CNC(=O)N[C@H](CNC(=O)N[C@H](CNC(=S)N[C@@H](CCCCN)CNC(=O)N[C@H](CNC(=O)N[C@@H](CCCCN)CNC(=O)N[C@H](CNC(N)=O)C(C)C)Cc1c[nH]c2ccccc12)C(C)C)Cc1c[nH]c2ccccc12)C(C)C has a CC50 at 4 h [1] of 28 µg/mL (≈ 19.9 µM).
